Patent US12054485B2, “Substituted imidazoquinolines” (BIONTECH SE, priority 2017, dated 2024)

Columns and labels:
[1] = target: T1, human TLR8 (Homo sapiens, UniProt Q9NR97); test: TLR8 reporter gene assay (HEK-Blue-hTLR8, NFkB/AP-1 inducible SEAP); format: cell-based
T1 construct: host or cells: HEK-Blue-hTLR8
T1 sequence (Q9NR97 27-1041): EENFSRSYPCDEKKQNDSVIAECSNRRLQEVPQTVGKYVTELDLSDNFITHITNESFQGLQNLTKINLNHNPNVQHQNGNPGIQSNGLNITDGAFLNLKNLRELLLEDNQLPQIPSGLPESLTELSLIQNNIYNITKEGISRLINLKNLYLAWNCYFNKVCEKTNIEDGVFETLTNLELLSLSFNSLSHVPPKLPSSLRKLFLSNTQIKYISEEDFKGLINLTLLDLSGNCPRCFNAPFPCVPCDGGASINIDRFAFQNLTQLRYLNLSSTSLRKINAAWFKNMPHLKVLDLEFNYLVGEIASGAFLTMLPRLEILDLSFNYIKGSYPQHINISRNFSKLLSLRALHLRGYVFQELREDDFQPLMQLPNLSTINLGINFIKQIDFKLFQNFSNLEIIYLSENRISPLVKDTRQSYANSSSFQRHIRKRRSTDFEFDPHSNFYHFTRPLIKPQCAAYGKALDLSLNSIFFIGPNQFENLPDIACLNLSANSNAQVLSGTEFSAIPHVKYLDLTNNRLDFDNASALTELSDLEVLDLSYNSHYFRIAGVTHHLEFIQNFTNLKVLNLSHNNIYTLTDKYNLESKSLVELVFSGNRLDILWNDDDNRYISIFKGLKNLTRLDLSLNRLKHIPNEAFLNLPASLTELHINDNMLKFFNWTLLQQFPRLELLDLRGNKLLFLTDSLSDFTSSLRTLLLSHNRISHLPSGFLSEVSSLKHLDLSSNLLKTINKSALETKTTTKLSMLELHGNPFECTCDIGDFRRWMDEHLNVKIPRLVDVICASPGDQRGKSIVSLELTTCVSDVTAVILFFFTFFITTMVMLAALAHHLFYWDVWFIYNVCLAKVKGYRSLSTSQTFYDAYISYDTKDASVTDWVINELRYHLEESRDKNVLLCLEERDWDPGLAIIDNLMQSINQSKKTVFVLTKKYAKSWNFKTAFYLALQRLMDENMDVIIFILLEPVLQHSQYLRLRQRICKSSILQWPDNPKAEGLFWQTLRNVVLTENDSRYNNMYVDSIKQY
Procedure: (§1) 2) TLR Stimulation Assay:
(§2) Compounds are tested for stimulation of human TLR7 and TLR8, respectively, via reporter gene expression analyzed in a cell line stably transfected with human TLR7 and TLR8, respectively, and coexpressing an NFkB/AP-1 inducible SEAP reporter gene. Stimulation with a TLR ligand leads to NFkB/AP-1 activation and upregulation and secretion of SEAP, which can be measured in the supernatant with QuantiBlue™ detection system (InvivoGen).
Cell lines used were either HEK-Blue-hTLR7 (InvivoGen #hkb-htlr7) or HEK-Blue-hTLR8 (InvivoGen #hkb-htlr8). Cells were cultured following manufacturer's instructions. […]

[2] = target: T2, human TLR7 (Homo sapiens, UniProt Q9NYK1); test: TLR7 reporter gene assay (HEK-Blue-hTLR7, NFkB/AP-1 inducible SEAP); format: cell-based; settings: HEK-Blue-hTLR7; highest concentration without any activity; read-out: activity towards TLR7 (no activity up to a concentration of)
T2 construct: host or cells: HEK-Blue-hTLR7
T2 sequence (Q9NYK1 27-1049): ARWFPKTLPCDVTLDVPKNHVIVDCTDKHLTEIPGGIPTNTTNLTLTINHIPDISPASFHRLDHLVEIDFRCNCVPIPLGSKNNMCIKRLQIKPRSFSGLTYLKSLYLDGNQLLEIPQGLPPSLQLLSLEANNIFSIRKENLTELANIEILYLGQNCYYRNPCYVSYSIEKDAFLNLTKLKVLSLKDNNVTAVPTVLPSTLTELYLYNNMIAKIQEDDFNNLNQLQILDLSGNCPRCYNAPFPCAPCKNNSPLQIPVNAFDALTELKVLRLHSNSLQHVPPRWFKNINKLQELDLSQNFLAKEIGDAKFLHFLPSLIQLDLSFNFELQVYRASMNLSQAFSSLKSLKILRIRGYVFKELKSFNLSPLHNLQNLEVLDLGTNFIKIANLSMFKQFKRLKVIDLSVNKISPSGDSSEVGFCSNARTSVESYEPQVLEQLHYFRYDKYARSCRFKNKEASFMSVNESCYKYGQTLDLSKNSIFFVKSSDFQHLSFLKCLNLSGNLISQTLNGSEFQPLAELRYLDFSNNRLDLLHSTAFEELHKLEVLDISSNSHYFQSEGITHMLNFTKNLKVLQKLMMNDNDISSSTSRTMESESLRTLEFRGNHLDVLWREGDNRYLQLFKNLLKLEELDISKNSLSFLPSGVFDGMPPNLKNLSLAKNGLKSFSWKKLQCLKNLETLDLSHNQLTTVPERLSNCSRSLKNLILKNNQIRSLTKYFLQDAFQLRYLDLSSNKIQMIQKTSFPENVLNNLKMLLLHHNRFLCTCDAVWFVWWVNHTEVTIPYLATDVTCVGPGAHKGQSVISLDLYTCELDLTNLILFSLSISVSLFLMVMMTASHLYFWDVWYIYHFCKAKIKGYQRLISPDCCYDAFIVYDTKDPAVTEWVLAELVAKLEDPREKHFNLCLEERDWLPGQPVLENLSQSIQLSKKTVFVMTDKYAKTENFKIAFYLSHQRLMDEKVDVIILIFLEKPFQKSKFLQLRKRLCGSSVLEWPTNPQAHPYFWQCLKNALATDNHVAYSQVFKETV
Procedure: as §1, §2
Cell lines used were either HEK-Blue-hTLR7 (InvivoGen #hkb-htlr7) or HEK-Blue-hTLR8 (InvivoGen #hkb-htlr8). Cells were cultured following manufacturer's instructions.
Assay: • prepare cell suspensions of each cell line with Nv=0.11×10^6 cells/ml in medium (DMEM 4.5 g/l Glucose, 2-4 mM L-glutamine+10% FBS) without antibiotics (Nv=number of living cells) • add 180 μl of the suspensions per well of a 96 well flat bottom cell culture plates (coster, #3506) • incubate the plates overnight at 37° C. and 5% CO2 • prepare samples and controls as solutions in DMSO: R848, CL075 (TLR 7/8 agonist by InvivoGen) and Guardiquimod each to a final concentration of 10 μM, ODN2006 (InvivoGen) and ODN2216 (InvivoGen) each to a final concentration 2 μM; • compounds of the invention are applied in dilution series to final concentrations of 30, 10, 3, 1, etc. μM • add 20 μl diluted compounds and controls (see above) to the wells • incubate plates for 20-24 h at 37° C. and 5% CO2 • prepare QuantiBlue™ (InvivoGen #10H19-MM) solution, following manufacturer's instructions: solubilize the powder of one pouch in 100 ml MilliQ grade water, heat at 37° C. in a water bath for about 30 min, filter the solution with a paper filter • add 100 μl prepared QuantiBlue™ solution in each well of a 96 well plate with flat bottom • add […] cell culture supernatant from the induced cells per well • incubate plates for 1 to 1.5 h at 37° C. (until an intense blue color has developed) • read OD at 620 nm with a plate reader • calculate EC50 from data points

[3] = test system: superficial basal cell carcinomas; settings: 5% cream (Aldara), topical; cited from earlier work

CCc1nc2c(N)nc3ccccc3c2n1CCCCNC1CCOCC1 [example V, 2-ethyl-1-(4-((tetrahydro-2H-pyran-4-yl)amino)butyl)-1H-imidazo[4,5-c]quinolin-4-amine]
activity towards TLR8 in the TLR8 reporter gene assay [1]: displayed activity
EC50 [2]: > 30 µM

CC(C)Cn1cnc2c(N)nc3ccccc3c21 [Imiquimod, imiquimod]
5-year clearance of superficial basal cell carcinomas [3]: approx. 80%
